Measured values taken from patent US12344649B2, “Modulators of parathyroid hormone receptor (PTHR1)” (Flagship Pioneering Innovations VI, LLC, priority 2019, dated 2025).
pEC50: −log10 of the molar value. Values joined by “and” are separate entries in the source; they are usually repeats but may differ in a detail not shown here. Equal values may be shown once. Where no end group is shown, it is not given here.

Assays:
Assay type in all cases: cell-based
PTHR1 [1] = molecular target: T1, PTHR1 (Homo sapiens, UniProt Q03431); test: β-arrestin1 recruitment BRET assay in transfected HEK293T cells; parameters: Flag (N); Life Technologies Corporation, CA (arrestin cDNA); host or cells: HEK293T (CRL-3216, ATCC); details: for β1-arrestin: relative to PTH [1-34], HEK293T cells, BRET; for −log10Slope / EC50: β-arrestin1 recruitment; for −log10Slope: fitted curve slope; for EC50: read-out: −log10EC50 (converted)
T1 sequence (Q03431 27-593): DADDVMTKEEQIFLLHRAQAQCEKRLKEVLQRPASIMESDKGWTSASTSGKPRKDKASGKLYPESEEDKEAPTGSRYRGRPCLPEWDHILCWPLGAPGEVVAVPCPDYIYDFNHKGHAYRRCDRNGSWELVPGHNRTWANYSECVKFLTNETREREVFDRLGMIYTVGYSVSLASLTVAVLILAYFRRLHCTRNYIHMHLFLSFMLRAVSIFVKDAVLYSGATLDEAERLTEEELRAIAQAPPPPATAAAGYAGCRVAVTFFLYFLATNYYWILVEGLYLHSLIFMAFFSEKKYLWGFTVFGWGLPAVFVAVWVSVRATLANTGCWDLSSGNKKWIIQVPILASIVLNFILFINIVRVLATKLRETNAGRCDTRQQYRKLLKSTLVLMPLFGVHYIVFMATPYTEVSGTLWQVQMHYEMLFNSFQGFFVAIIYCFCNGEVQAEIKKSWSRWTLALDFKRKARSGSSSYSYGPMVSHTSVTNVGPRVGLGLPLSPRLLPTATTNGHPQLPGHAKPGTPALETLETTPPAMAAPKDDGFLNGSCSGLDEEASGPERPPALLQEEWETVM
Method: (§1) 18-24 hours post transfection, the Luciferase substrate Coelenterazine (NanoLight Technologies, AZ) was added to cells, a baseline BRET measurement was taken after 5 minutes incubation, and then serial dilutions of peptides, diluted in PBS (with 0.5 mM MgCl2+0.1% BSA FAF), were added to cells, and BRET signal was measured every 2 minutes for 30 minutes on Hybrid Multi-Mode Reader (Synergy Neo2, BioTek, VT). Seventy-five peptides were tested in the β-arrestin recruitment assay.

PTHR1 [2] = molecular target: T1, PTHR1; test: cAMP accumulation assay (HTRF) in CHO-K1/Ga15/PTHR1 cells; parameters: host or cells: CHO-K1 (recombinant line CHO-K1/Ga15/PTHR1); details: for Emax: CHO-K1, cAMP assay, fitted dose-response maximum; for cAMP accumulation activity compared to control peptide: FIG. 3, PTH 1-34 positive control; for cAMP: relative to PTH [1-34], CHO-K1/Ga15/PTHR1 cells; for EC50: read-out: −log10EC50 (converted)
Method: Cell suspension (5 μL) was seeded in 384-well plates at a density of 3,000 cells/well. Cells were treated with test samples (5 μL) or agonist (PTH 1-34) for 30 minutes at room temperature. cAMP-d2 working solution (5 μL) and anti-cAMP-Cryptate working solution (5 μL) were added to cells and incubated for 60 minutes at room temperature. The signal of the assay plate was read with PheraStar (BMG LABTECH, NC), an HTRF compatible reader.

PTHR1 [3] = molecular target: T1, PTHR1; test: β-arrestin2 recruitment BRET assay in transfected HEK293T cells; parameters: Flag (N); Life Technologies Corporation, CA (arrestin cDNA); host or cells: HEK293T (CRL-3216, ATCC); details: for β-arrestin2 assay activity compared to control peptide: FIG. 2, PTH 1-34 positive control; for β2-arrestin: relative to PTH [1-34], HEK293T cells, BRET; for −log10Slope / EC50: β-arrestin2 recruitment; for −log10Slope: fitted curve slope; for EC50: read-out: −log10EC50 (converted)
Method: as §1

[4] = replicate plates, listed as R1-101
[5] = cAMP accumulation, fitted curve slope, replicate plates
[6] = cAMP accumulation, replicate plates
[7] = cAMP assay, fitted dose-response curve
[8] = cAMP assay, fitted dose-response slope

| Compound | cAMP accumulation activity compared to control peptide (PTHR1 [2]) | cAMP (PTHR1 [2]) | −log10Slope (PTHR1 [1]; replicate plates) | −log10Slope (PTHR1 [2]; [5]) | EC50 (PTHR1 [2]; [6]) | −log10Slope (PTHR1 [3]; replicate plates) | EC50 (PTHR1 [3]; replicate plates) | EC50 (PTHR1 [1]; replicate plates) | other results |
| --- | --- | --- | --- | --- | --- | --- | --- | --- | --- |
| CC[C@H](C)[C@H](NC(=O)[C@H](CCC(=O)O)NC(=O)[C@H](CO)NC(=O)[C@@H](NC(=O)[C@@H](N)CO)C(C)C)C(=O)N[C@@H](CCC(N)=O)C(=O)N[C@@H](CC(C)C)C(=O)N[C@@H](CCSC)C(=O)N[C@@H](Cc1cnc[nH]1)C(=O)N[C@@H](CC(N)=O)C(=O)N[C@@H](CC(C)C)C(=O)NCC(=O)N[C@@H](CCCCN)C(=O)N[C@@H](Cc1cnc[nH]1)C(=O)N[C@@H](CC(C)C)C(=O)N[C@@H](CC(N)=O)C(=O)N[C@@H](CO)C(=O)N[C@@H](CCSC)C(=O)N[C@@H](CCC(=O)O)C(=O)N[C@@H](CCCN=C(N)N)C(=O)N[C@H](C(=O)N[C@@H](CCC(=O)O)C(=O)N[C@@H](Cc1c[nH]c2ccccc12)C(=O)N[C@@H](CC(C)C)C(=O)N[C@@H](CCCN=C(N)N)C(=O)N[C@@H](CCCCN)C(=O)N[C@@H](CCCCN)C(=O)N[C@@H](CC(C)C)C(=O)N[C@@H](CCC(N)=O)C(=O)N[C@@H](CC(=O)O)C(=O)N[C@H](C(=O)N[C@@H](Cc1cnc[nH]1)C(=O)N[C@@H](CC(N)=O)C(=O)N[C@@H](Cc1ccccc1)C(=O)O)C(C)C)C(C)C [Teriparatide, reference compound] | increased activity as compared to the control peptide | ++ | – | – | – | – | – | – | β1-arrestin (PTHR1 [1]): +; −log10Slope (PTHR1 [1]; [4]): −2.906 and −3.664 and −1.356; Emax (PTHR1 [2]): 100%; −log10Slope (PTHR1 [2]; cAMP accumulation, fitted curve slope, replicate plates, listed as R1-101): −4.492 and −4.864 and −4.046; β-arrestin2 assay activity compared to control peptide (PTHR1 [3]): increased activity as compared to control; β2-arrestin (PTHR1 [3]): ++; −log10Slope (PTHR1 [3]; [4]): −3.44 and −3.409 and −3.396 |
| AVAEIQLMHQRAKWAIQEIGIKITRELLERYL [Peptide R2-42] | – | – | −1.503 and −1.149 and −5.574 | 13.11 | 285 nM | −2.7849 and −2.122 and −2.912 | 8.07 nM and 4.22 nM and 23.7 nM | – | β-arrestin2 assay activity compared to control peptide (PTHR1 [3]): activity similar to the control peptide; β2-arrestin (PTHR1 [3]): + |
| AVAEIQLMHQRAKWDLLIELVKLLHELLKEYI [Peptide R2-40] | increased activity as compared to the control peptide | ++ | −4.125 and −1.577 | −2.205 | 0.00583 nM | −3.733 and −2.83 | 856 nM and 1410 nM | 571 nM and 3600 nM | – |
| AVAEIQLMHQRAKWDVLIELAKLLAELLRRYH [Peptide R2-47] | increased activity as compared to the control peptide | ++ | −1.834 and −2.2235 and −1.644 | 12 | – | −2.078 and −1.716 and −1.634 | – | – | pEC50 (PTHR1 [1]; −log10EC50, β-arrestin1 recruitment, replicate plates): 5.84 and 6.19 and 5.44; pEC50 (PTHR1 [2]): 9.23; pEC50 (PTHR1 [3]; −log10EC50, β-arrestin2 recruitment, replicate plates): 5.86 and 5.77 and 5.46 |
| AVAEIQLMHQRAKWEIQEIGIKITLDLLQTLK [Peptide R2-41] | increased activity as compared to the control peptide | ++ | −8.214 | −2.911 | 0.0557 nM | −4.333 | 940 nM | 3.83 nM | – |
| AVAEIQLMHQRAKWEIQEIGIKITLELLKEYI [Peptide R2-37] | increased activity as compared to the control peptide | – | −1.386 and −0.8678 and −5.353 | −5.899 | 0.813 nM | −4.144 and −2.117 and −4.372 | 386 nM and 1380 nM and 497 nM | – | – |
| AVAEIQLMHQRAKWELEFELFREFLKLLVDFF [Peptide R1-97] | – | – | −0.04462 and −1.336 and −0.04454 and −4.221 | – | – | −4.859 and −4.946 and −1.289 and −4.995 | – | – | Emax (PTHR1 [2]): 99.3%; EC50 (PTHR1 [2]; [7]): 58.7 nM; −log10Slope (PTHR1 [2]; [8]): −14.176 |
| AVAEIQLMHQRAKWELEYELFEMFLKLLEEIF [Peptide R1-100] | – | – | −6.023 and −5.129 and −4.482 | – | – | −5.84 and −1.653 and −5.805 | – | 607 nM and 605 nM and 569 nM | Emax (PTHR1 [2]): 99.9%; EC50 (PTHR1 [2]; [7]): 52.8 nM; −log10Slope (PTHR1 [2]; [8]): −12.0796 |
| AVAEIQLMHQRAKWELLEELLKILLELLKEYI [Peptide R2-38] | – | – | −5.307 | −7.566 | 124 nM | −4.789 | – | 0.0179 nM | β-arrestin1 recruitment compared to PTH 1-34 (PTHR1 [1]; FIG. 1, PTH 1-34 positive control): higher levels of recruitment of β-arrestin 1; β1-arrestin (PTHR1 [1]): ++ |
| AVAEIQLMHQRAKWELQEIGIAITLRLLARYI [Peptide R2-43] | increased activity as compared to the control peptide | ++ | −3.786 and −3.741 and −1.605 | 7.669 | 0.0348 nM | −6.422 and −8.23 and −2.379 | – | – | – |
| AVAEIQLMHQRAKWELQEIGIKITLDLLEAYL [Peptide R2-39] | – | – | −0.2801 and −4.065 and −4.878 | – | – | −5.314 and −3.58 and −2.2339 | – | 775 nM and 594 nM | – |
| AVAEIQLMHQRAKWGLDLELAVKLQEILKDVL [Peptide R2-28] | – | – | −1.455 | −5.52 | 92.4 nM | −3.381 | 800 nM | – | – |
| AVAEIQLMHQRAKWGLDLELRARLREILRDVY [Peptide R2-31] | – | – | −2.895 and −4.559 | −0.697 | – | −3.98 and −2.409 | 6.58 nM and 7.64 nM | 9.96 nM and 2.96 nM | β-arrestin2 assay activity compared to control peptide (PTHR1 [3]): activity similar to the control peptide; β2-arrestin (PTHR1 [3]): + |
| AVAEIQLMHQRAKWSILEELLKILTALLDEYI [Peptide R2-46] | – | – | −3.506 and −2.782 and −5.541 | – | – | −3.413 and −1.882 and −2.306 | 539 nM and 187 nM and 550 nM | 565 nM and 447 nM and 394 nM | – |
| LMHNLGKHLNSMERVEWLRKKLQDVHNFVA [PTH 7-36 antago, reference compound] | – | – | −1.192 | – | – | −2.649 | 46.9 nM | 105 nM | – |
